This experiment concerns the target T1, full-length beta-Catenin (Uniprot ID P35222) (Homo sapiens, UniProt P35222).
T1 construct: 10 nM full-length beta-Catenin (Uniprot ID P35222)
T1 sequence (P35222 1-781): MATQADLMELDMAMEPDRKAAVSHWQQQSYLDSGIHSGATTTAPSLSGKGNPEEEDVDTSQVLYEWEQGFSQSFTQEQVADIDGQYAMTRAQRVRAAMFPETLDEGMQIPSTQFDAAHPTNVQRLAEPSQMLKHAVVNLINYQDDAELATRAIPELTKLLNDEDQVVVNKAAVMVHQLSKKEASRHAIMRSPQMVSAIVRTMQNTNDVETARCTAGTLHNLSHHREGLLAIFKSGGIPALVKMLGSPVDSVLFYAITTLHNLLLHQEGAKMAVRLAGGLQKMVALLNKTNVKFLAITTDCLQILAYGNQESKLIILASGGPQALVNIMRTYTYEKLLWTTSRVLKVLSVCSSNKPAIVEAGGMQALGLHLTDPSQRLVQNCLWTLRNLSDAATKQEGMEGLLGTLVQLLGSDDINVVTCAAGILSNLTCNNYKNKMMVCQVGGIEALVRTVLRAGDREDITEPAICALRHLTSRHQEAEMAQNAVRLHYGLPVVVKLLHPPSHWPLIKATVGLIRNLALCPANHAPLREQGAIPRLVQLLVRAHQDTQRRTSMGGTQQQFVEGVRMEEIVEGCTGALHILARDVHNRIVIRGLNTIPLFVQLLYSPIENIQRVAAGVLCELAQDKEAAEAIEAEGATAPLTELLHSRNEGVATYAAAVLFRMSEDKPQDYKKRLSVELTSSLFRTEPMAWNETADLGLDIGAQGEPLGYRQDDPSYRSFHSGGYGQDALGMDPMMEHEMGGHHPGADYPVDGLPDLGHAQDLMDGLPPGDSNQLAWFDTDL
Put plainly: Fluorescence polarization IC50 (beta-catenin / 5FAM-TCF4 10-53 competition). Format: binding. The conditions noted are these: fluorescence polarization; read-out: beta-Catenin FP IC50. (In general: Fluorescence polarisation rises when a labelled molecule tumbles more slowly, as on binding a larger partner.)

SMILES strings stand for the structures.

Broadly, the IC50 is the concentration that inhibits the measured activity by half.

`CC(=O)N1CCC[C@]12CC=CCCCC1(CCCC=CCCCOC(=O)N3CC[C@@](C(=O)N[C@@H](Cc4ccsc4)C(=O)N[C@@H](Cc4csc5ccccc45)C(=O)N[C@H](C(N)=O)C(C)C)(C3)NC(=O)[C@H](CC(N)=O)NC(=O)[C@H](Cc3ccccc3)NC(=O)[C@H](C)NC(=O)[C@H](C)NC(=O)[C@H]([C@@H](C)O)NC(=O)[C@H](CC(N)=O)NC1=O)NC(=O)[C@H](CC(C)(C)C)NC(=O)[C@H](CC(=O)O)NC2=O` (stereo partly drawn) [I-1878, Ac-PL3-Asp-Npg-B5-Asn-Thr-Ala-Ala-Phe-Asn-PyrS2-3Thi-BztA-Val-NH2]: the IC50 came out at 0.458 µM. Under `CC(=O)N1CCC[C@]12CC=CCCCC1(CCCC=CCCCOC(=O)N3CC[C@@](C(=O)N[C@@H](Cc4ccsc4)C(=O)N[C@@H](Cc4csc5ccccc45)C(=O)N[C@H](C(N)=O)C(C)C)(C3)NC(=O)[C@H](CC(N)=O)NC(=O)[C@H](Cc3ccccc3)NC(=O)[C@H](C)NC(=O)[C@H](C)NC(=O)[C@H]([C@@H](C)O)NC(=O)[C@H](CC(N)=O)NC1=O)NC(=O)[C@H](CC(C)(C)C)NC(=O)[C@H](CC(=O)O)NC2=O` (stereo partly drawn) [I-1879, Ac-PL3-Asp-Npg-B5-Asn-Thr-Ala-Ala-Phe-Asn-PyrS2-3Thi-BztA-Val-NH2] stands 0.567 µM. Under `CC(=O)N1CCC[C@]12CC=CCCCC1(CCCC=CCCCOC(=O)N3CC[C@@](C(=O)N[C@@H](Cc4ccsc4)C(=O)N[C@@H](Cc4csc5ccccc45)C(=O)N[C@@H](CC(C)C)C(N)=O)(C3)NC(=O)[C@H](CC(N)=O)NC(=O)[C@H](Cc3ccccc3)NC(=O)[C@H](C)NC(=O)[C@H](C)NC(=O)[C@H]([C@@H](C)O)NC(=O)[C@H](CC(N)=O)NC1=O)NC(=O)[C@H](CC(C)(C)C)NC(=O)[C@H](CC(=O)O)NC2=O` (stereo partly drawn) [I-1880, Ac-PL3-Asp-Npg-B5-Asn-Thr-Ala-Ala-Phe-Asn-PyrS2-3Thi-BztA-Leu-NH2] stands 0.868 µM; under `CC(=O)N1CCC[C@]12CC=CCCCC1(CCCC=CCCCOC(=O)N3CC[C@@](C(=O)N[C@@H](Cc4ccsc4)C(=O)N[C@@H](Cc4csc5ccccc45)C(=O)N[C@@H](CC(C)C)C(N)=O)(C3)NC(=O)[C@H](CC(N)=O)NC(=O)[C@H](Cc3ccccc3)NC(=O)[C@H](C)NC(=O)[C@H](C)NC(=O)[C@H]([C@@H](C)O)NC(=O)[C@H](CC(N)=O)NC1=O)NC(=O)[C@H](CC(C)(C)C)NC(=O)[C@H](CC(=O)O)NC2=O` (stereo partly drawn) [I-1881, Ac-PL3-Asp-Npg-B5-Asn-Thr-Ala-Ala-Phe-Asn-PyrS2-3Thi-BztA-Leu-NH2], 0.743 µM.

For `CC(=O)N1CCC[C@]12CC=CCCCC1(CCCC=CCCCOC(=O)N3CC[C@@](C(=O)N[C@@H](Cc4ccsc4)C(=O)N[C@@H](Cc4csc5ccccc45)C(=O)N[C@@H](CCC(N)=O)C(N)=O)(C3)NC(=O)[C@H](CCCNC(=N)N)NC(=O)[C@H](Cc3ccccc3)NC(=O)[C@H](C)NC(=O)[C@H](C)NC(=O)[C@H]([C@@H](C)O)NC(=O)[C@H](CC(N)=O)NC1=O)NC(=O)[C@H](CC(C)(C)C)NC(=O)[C@H](CC(=O)O)NC2=O` (stereo partly drawn) [I-1882, Ac-PL3-Asp-Npg-B5-Asn-Thr-Ala-Ala-Phe-Arg-PyrS2-3Thi-BztA-Gln-NH2], the IC50 came out at 0.397 µM. With `CC(=O)N1CCC[C@]12CC=CCCCC1(CCCC=CCCCOC(=O)N3CC[C@@](C(=O)N[C@@H](Cc4ccsc4)C(=O)N[C@@H](Cc4csc5ccccc45)C(=O)N[C@@H](CCC(N)=O)C(N)=O)(C3)NC(=O)[C@H](CCCNC(=N)N)NC(=O)[C@H](Cc3ccccc3)NC(=O)[C@H](C)NC(=O)[C@H](C)NC(=O)[C@H]([C@@H](C)O)NC(=O)[C@H](CC(N)=O)NC1=O)NC(=O)[C@H](CC(C)(C)C)NC(=O)[C@H](CC(=O)O)NC2=O` (stereo partly drawn) [I-1883, Ac-PL3-Asp-Npg-B5-Asn-Thr-Ala-Ala-Phe-Arg-PyrS2-3Thi-BztA-Gln-NH2], the IC50 worked out at 0.884 µM. The value for `CC(=O)N1CCC[C@]12CC=CCCCC1(CCCC=CCCCOC(=O)N3CC[C@@](C(=O)N[C@@H](Cc4ccsc4)C(=O)N[C@@H](Cc4csc5ccccc45)C(=O)N[C@@H](CCC(N)=O)C(N)=O)(C3)NC(=O)[C@H](CC(N)=O)NC(=O)[C@H](Cc3ccccc3)NC(=O)[C@H](C)NC(=O)[C@H](C)NC(=O)[C@H]([C@@H](C)O)NC(=O)[C@H](CC(N)=O)NC1=O)NC(=O)[C@H](CC1CCCCC1)NC(=O)[C@H](CC(=O)O)NC2=O` (stereo partly drawn) [I-1884, Ac-PL3-Asp-Cha-B5-Asn-Thr-Ala-Ala-Phe-Asn-PyrS2-3Thi-BztA-Gln-NH2] was 0.249 µM; that for `CC(=O)N1CCC[C@]12CC=CCCCC1(CCCC=CCCCOC(=O)N3CC[C@@](C(=O)N[C@@H](Cc4ccsc4)C(=O)N[C@@H](Cc4csc5ccccc45)C(=O)N[C@@H](CCC(N)=O)C(N)=O)(C3)NC(=O)[C@H](CC(N)=O)NC(=O)[C@H](Cc3ccccc3)NC(=O)[C@H](C)NC(=O)[C@H](C)NC(=O)[C@H]([C@@H](C)O)NC(=O)[C@H](CC(N)=O)NC1=O)NC(=O)[C@H](CC1CCCCC1)NC(=O)[C@H](CC(=O)O)NC2=O` (stereo partly drawn) [I-1885, Ac-PL3-Asp-Cha-B5-Asn-Thr-Ala-Ala-Phe-Asn-PyrS2-3Thi-BztA-Gln-NH2] was 0.255 µM.

On to `CC(=O)N1CCC[C@]12CC=CCCCC1(CCCC=CCCCOC(=O)N3CC[C@@](C(=O)N[C@@H](Cc4ccsc4)C(=O)N[C@@H](Cc4csc5ccccc45)C(=O)N[C@@H](CCC(N)=O)C(N)=O)(C3)NC(=O)[C@H](CC(N)=O)NC(=O)[C@H](Cc3ccccc3)NC(=O)[C@H](C)NC(=O)[C@H](C)NC(=O)[C@H](CCCNC(=N)N)NC(=O)[C@H](CC(N)=O)NC1=O)NC(=O)[C@H](CC(C)(C)C)NC(=O)[C@H](CC(=O)O)NC2=O` (stereo partly drawn) [I-1892, Ac-PL3-Asp-Npg-B5-Asn-Arg-Ala-Ala-Phe-Asn-PyrS2-3Thi-BztA-Gln-NH2], for which the half-maximal inhibitory concentration (IC50) turned out to be 1.42 µM. Under `CC(=O)N1CCC[C@]12CC=CCCCC1(CCCC=CCCCOC(=O)N3CC[C@@](C(=O)N[C@@H](CC4CCCC4)C(=O)N[C@@H](Cc4csc5ccccc45)C(=O)N[C@@H](CO)C(N)=O)(C3)NC(=O)[C@H](CC(C)C)NC(=O)[C@H](Cc3ccccc3)NC(=O)[C@H](C)NC(=O)[C@H](C)NC(=O)[C@H](Cc3cccc(C(=O)O)c3)NC(=O)[C@H](CC(=O)O)NC1=O)NC(=O)[C@H](CC(C)(C)C)NC(=O)[C@H](CC(=O)O)NC2=O` (stereo partly drawn) [I-1896, Ac-PL3-Asp-Npg-B5-Asp-3COOHF-Ala-Ala-Phe-Leu-PyrS2-CypA-BztA-Ser-NH2] stands 0.075 µM; under `CC(=O)N1CCC[C@]12CC=CCCCC1(CCCC=CCCCOC(=O)N3CC[C@@](C(=O)N[C@@H](Cc4ccccc4Cl)C(=O)N[C@@H](Cc4csc5ccccc45)C(=O)N[C@@H](CO)C(=O)N[C@@H](C)CO)(C3)NC(=O)[C@H](CC(C)C)NC(=O)[C@H](Cc3ccccc3)NC(=O)[C@H](C)NC(=O)[C@H](C)NC(=O)[C@H](Cc3cccc(C(=O)O)c3)NC(=O)[C@H](CC(=O)O)NC1=O)NC(=O)[C@H](CC(C)(C)C)NC(=O)[C@H](CC(=O)O)NC2=O` (stereo partly drawn) [I-1907, Ac-PL3-Asp-Npg-B5-Asp-3COOHF-Ala-Ala-Phe-Leu-PyrS2-2C1F-BztA-Ser-Alao1], 0.023 µM.

With `CC(=O)N1CCC[C@]12CC=CCCCC1(CCCC=CCCCOC(=O)N3CC[C@@](C(=O)N[C@@H](Cc4ccsc4)C(=O)N[C@@H](Cc4csc5ccccc45)C(=O)N[C@@H](Cc4ccccc4)C(N)=O)(C3)NC(=O)[C@H](CC(C)C)NC(=O)[C@H](Cc3ccccc3)NC(=O)[C@H](C)NC(=O)[C@H](Cc3c[nH]cn3)NC(=O)[C@H](Cc3cccc(C(=O)O)c3)NC(=O)[C@H](CC(=O)O)NC1=O)NC(=O)[C@H](CC(C)(C)C)NC(=O)[C@H](CC(=O)O)NC2=O` (stereo partly drawn) [I-1910, Ac-PL3-Asp-Npg-B5-Asp-3COOHF-His-Ala-Phe-Leu-PyrS2-3Thi-BztA-Phe-NH2], the IC50 worked out at 0.017 µM. With `CC(=O)N1CCC[C@]12CC=CCCCC1(CCCC=CCCCOC(=O)N3CC[C@@](C(=O)N[C@@H](Cc4ccsc4)C(=O)N[C@@H](Cc4csc5ccccc45)C(=O)N[C@@H](CCC(N)=O)C(N)=O)(C3)NC(=O)[C@H](CC(C)C)NC(=O)[C@H](Cc3ccccc3)NC(=O)[C@H](C)NC(=O)[C@H](C)NC(=O)[C@H](CN3CCC[C@H](C(=O)O)C3)NC(=O)[C@H](CC(=O)O)NC1=O)NC(=O)[C@H](CC(C)(C)C)NC(=O)[C@H](CC(=O)O)NC2=O` (stereo partly drawn) [I-1921, Ac-PL3-Asp-Npg-B5-Asp-S3COOPipA-Ala-Ala-Phe-Leu-PyrS2-3Thi-BztA-Gln-NH2], the IC50 was 0.022 µM.

For `CC(=O)N1CCC[C@]12CC=CCCCC1(CCCC=CCCCOC(=O)N3CC[C@@](C(=O)N[C@@H](Cc4ccccc4)C(=O)N[C@@H](Cc4csc5ccccc45)C(=O)N[C@@H](CCO)C(N)=O)(C3)NC(=O)[C@H](CCO)NC(=O)[C@H](Cc3ccccc3)NC(=O)[C@H](C)NC(=O)[C@H](CCCCNC(C)C)NC(=O)[C@H](CCC(N)=O)NC(=O)[C@H](CC(=O)O)NC1=O)NC(=O)[C@H](CC1CCCCC1)NC(=O)[C@H](CC(N)=O)NC2=O` (stereo partly drawn) [I-1922, Ac-PL3-Asn-Cha-B5-Asp-Gln-iPrLys-Ala-Phe-Hse-PyrS2-Phe-BztA-Hse-NH2], the IC50 was determined as 0.457 µM.

Values taken from patent publication US20240116985A1, “STAPLED PEPTIDES AND METHODS THEREOF” (priority 2020, published 2024).
